Data published in patent publication US7723331B2, “Thienopyrimidine compounds and uses thereof” (AstraZeneca AB, priority 2006, dated 2010).
Each block holds one compound with its values, some of them ahead of it.

Columns and labels:
hERG = hERG (Homo sapiens, UniProt Q12809); assay: hERG activity (planar-array-based voltage clamp); type: cell-based; details: modified method of Kiss et al.
Procedure: hERG testing was performed using a modified version of the method described by Kiss et al., “High throughput ion-channel pharmacology: planar-array-based voltage clamp.” Assay Drug Dev Technol., 2003, 1, 127-35.

[1] = target: T1, human melanin concentrating hormone receptor 1 (hMCHr1) (Homo sapiens, UniProt Q99705); assay: MCHr1 radioligand binding (125I-MCH displacement); details: membranes from CHO-K1 cells expressing hMCHr1, 125I-MCH
T1 construct: purchased Euroscreen; host or cells: CHO-K1
T1 sequence (Q99705 whole entry): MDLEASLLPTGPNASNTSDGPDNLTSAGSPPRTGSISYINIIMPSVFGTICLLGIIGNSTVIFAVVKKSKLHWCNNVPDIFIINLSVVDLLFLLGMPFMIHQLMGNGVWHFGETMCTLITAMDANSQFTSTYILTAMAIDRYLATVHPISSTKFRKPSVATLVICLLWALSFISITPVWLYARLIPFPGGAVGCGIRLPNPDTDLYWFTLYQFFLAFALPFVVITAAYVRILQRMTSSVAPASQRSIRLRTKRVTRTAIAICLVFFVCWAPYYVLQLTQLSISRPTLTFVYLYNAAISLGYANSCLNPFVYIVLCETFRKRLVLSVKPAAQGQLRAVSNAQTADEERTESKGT
Procedure: Assays were performed on membranes prepared from CHO-K1 cells expressing the human melanin concentrating hormone receptor 1 (hMCHr1, […] protein; Euroscreen). Assays were performed in a 96-well plate format in a final reaction volume of […] per well. Each well contained 6 μg of membrane proteins diluted in binding buffer (50 mM Tris, 3 mM MgCl2, 0.05% bovine serum albumin and the radioligand ^125I-MCH (IM344 Amersham) was added to give 10 000 cpm (counts per minute) per well. Each well contained 2 μl of the appropriate concentration of competitive antagonist prepared in DMSO or in HOAc and left to stand at 30° C. for 60 minutes. Non-specific binding was determined as that remaining following incubation with 1 μM MCH (Melanin concentrating hormone, H-1482 Bachem). The reaction was terminated by transfer of the reaction to GF/A filters using a Micro96 Harvester (Skatron Instruments, Norway). Filters were washed with assay buffer. Radioligand retained on the filters was quantified using a 1450 Microbeta TRILUX (Wallac, Finland).
Non-specific binding was subtracted from all values determined. Maximum binding was that determined in the absence of any competitor following subtraction of the value determined for non-specific binding. Binding of compounds at various concentrations was plotted according to the equation y=A+((B−A)/1+((C/x)^D))) and IC50 estimated where: […]

recombinant hMCHr1 = target: T2, recombinant hMCHr1 (Homo sapiens, UniProt Q99705); assay: MCHr1 functional assay ([35S]GTPγS); type: biochemical; details: hMCHr1 membranes, ED80 concentration of MCH
T2 construct: purchased Euroscreen
T2 sequence (Q99705 whole entry): as above
Procedure: Membranes expressing recombinant hMCHr1 (5.45 pmol/mg protein; Euroscreen) were prepared in assay buffer (50 mM HEPES, 100 mM NaCl, 5 mM MgCl2, 1 mM EDTA, 200 μM DTT, 20 μM GDP (Sigma) containing 0.1 μg/ml BSA, pH7.4) before assay. The assays were performed using membranes at 6 μg/well in an assay volume of 200 μL and the appropriate concentrations of compounds prepared in DMSO or in HOAc. The reaction was started by addition of 0.056 nM [^35S]GTPγS (Specific activity >1000 Ci/mmol; Amersham) and an ED80 concentration of MCH (determined for each membrane and each MCH batch). Non-specific binding was determined using 20 μM non-radiolabelled GTPγS. Plates were incubated for 45 min at 30° C. Free and bound GTPγS were separated by filtration binding using GF/B filter mats presoaked in wash buffer (50 mM Tris, 5 mM MgCl2, 50 mM NaCl, pH 7.4) using a Micro96 cell harvester (Skatron Instruments) and the filters then dried at 50° C. before counting using a 1450 Microbeta TRILUX (Wallac).
Data are means±SD for experiments performed in triplicate. IC50 values of antagonists were determined using non-linear regression analysis of concentration response curves using Activity Base.

Sequence of hERG (Q12809 whole entry): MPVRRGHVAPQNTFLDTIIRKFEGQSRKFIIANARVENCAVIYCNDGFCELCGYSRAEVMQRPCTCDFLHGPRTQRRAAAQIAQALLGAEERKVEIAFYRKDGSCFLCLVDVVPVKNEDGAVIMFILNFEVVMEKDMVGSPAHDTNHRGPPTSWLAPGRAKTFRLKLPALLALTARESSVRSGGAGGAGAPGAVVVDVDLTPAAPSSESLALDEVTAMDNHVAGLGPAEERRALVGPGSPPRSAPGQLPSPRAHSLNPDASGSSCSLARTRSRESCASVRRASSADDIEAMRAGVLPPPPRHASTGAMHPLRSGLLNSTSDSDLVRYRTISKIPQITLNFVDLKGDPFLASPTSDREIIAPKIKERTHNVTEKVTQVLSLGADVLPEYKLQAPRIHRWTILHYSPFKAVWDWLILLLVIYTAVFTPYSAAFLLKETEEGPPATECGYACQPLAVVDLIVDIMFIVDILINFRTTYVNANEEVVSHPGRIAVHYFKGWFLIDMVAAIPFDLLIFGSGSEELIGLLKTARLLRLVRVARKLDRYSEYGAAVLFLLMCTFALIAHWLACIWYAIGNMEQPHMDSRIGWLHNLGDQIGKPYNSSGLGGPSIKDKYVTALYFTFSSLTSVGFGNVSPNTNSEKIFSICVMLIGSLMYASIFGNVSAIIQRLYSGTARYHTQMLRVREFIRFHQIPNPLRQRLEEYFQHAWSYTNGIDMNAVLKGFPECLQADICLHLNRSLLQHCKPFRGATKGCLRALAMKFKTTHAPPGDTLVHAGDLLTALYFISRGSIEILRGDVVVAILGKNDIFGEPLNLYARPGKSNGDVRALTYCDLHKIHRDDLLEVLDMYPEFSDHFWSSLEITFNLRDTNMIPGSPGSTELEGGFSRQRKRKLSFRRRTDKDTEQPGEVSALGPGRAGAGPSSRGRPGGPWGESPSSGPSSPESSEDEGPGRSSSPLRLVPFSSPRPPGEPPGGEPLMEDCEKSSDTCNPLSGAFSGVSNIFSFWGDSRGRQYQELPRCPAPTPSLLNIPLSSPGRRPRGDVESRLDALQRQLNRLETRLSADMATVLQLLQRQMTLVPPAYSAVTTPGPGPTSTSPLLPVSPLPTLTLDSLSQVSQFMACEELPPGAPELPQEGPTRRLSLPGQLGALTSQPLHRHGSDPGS

Compound: CN1[C@@H]2CC[C@H]1C[C@@H](Oc1cccc(Cn3cnc4cc(-c5ccc(Cl)cc5)sc4c3=O)c1)C2 [Example 1, 6-(4-Chlorophenyl)-3-(3-{[(3-endo)-8-methyl-8-azabicyclo[3.2.1]oct-3-yl]oxy}benzyl)thieno[3,2-d]pyrimidin-4(3H)-one]
- IC50 (hERG): 6500 nM
- IC50 [1]: 26 nM

- melting point: 202 to 203 °C
Compound: CN1CCC(Oc2cccc(Cn3cnc4cc(-c5ccc(Cl)cc5)sc4c3=O)n2)CC1 [Example 11, 6-(4-Chlorophenyl)-3-({6-[(1-methylpiperidin-4-yl)oxy]pyridin-2-yl}methyl)thieno[3,2-d]pyrimidin-4(3H)-one]

- IC50 (recombinant hMCHr1): 42 nM
Compound: CN1CCN(Cc2cccc(Cn3cnc4cc(-c5ccc(Cl)cc5)sc4c3=O)c2)CC1 [Example 5, 6-(4-Chlorophenyl)-3-{3-[(4-methylpiperazin-1-yl)methyl]benzyl}thieno[3,2-d]pyrimidin-4(3H)-one]
